Laboratory results taken from patent US9469608B2, “Thrombin inhibitors” (Merck Sharp & Dohme Corp., priority 2012, dated 2016).
pKi: −log10 of the molar value. Read-outs that look alike come from different tables or passages of the source.

Molecular target: human α-thrombin (Homo sapiens (Human), UniProt P00734)
Assay: In vitro assay for determining proteinase inhibition (thrombin Ki)
Format: biochemical
Experimental: NMR determinations were made using 400 MHz field strength. Ki data was obtained according to the procedure described in Lewis, et al. Thromb. […] Reactions sensitive to moisture or air were performed under nitrogen or argon using anhydrous solvents and reagents. […] Typically, the analytical LC-MS system used consisted of a Waters ZQ platform with electrospray ionization in positive ion detection mode with an Agilent 1100 series HPLC with autosampler. The column was usually a Water Xterra MS C18, 3.0×50 mm, 5 μm. The flow rate was 1 mL/min, and the injection volume was 10 μL. UV detection was in the range 210-400 nm. […] Preparative HPLC purifications were usually performed using a mass spectrometry directed system. […] The mobile phases consisted of mixtures of acetonitrile (10-100%) in water containing 0.1% TFA. Flow rates were maintained at 50 mL/min, the injection volume was 1800 μL, and the UV detection range was 210-400 nm. Mobile phase gradients were optimized for the individual compounds. Reactions performed using microwave irradiation were normally carried out using an Emrys Optimizer manufactured by Personal Chemistry, or an Initiator manufactured by Biotage. Concentration of solutions was carried out on a rotary evaporator under reduced pressure. Flash chromatography was usually performed using a Biotage Flash Chromatography apparatus (Dyax Corp.) on silica gel ([…], 60 Å pore size) in pre-packed cartridges of the size noted. ^1H NMR spectra were acquired at 500 MHz spectrometers in CDCl3 solutions unless otherwise noted. Chemical shifts were reported in parts per million (ppm). Tetramethylsilane (TMS) was used as internal reference in CD3Cl solutions, and residual CH3OH peak or TMS was used as internal reference in CD3OD solutions. Coupling constants (J) were reported in hertz (Hz). Chiral analytical chromatography was performed on one of Chiralpak AS, Chiralpak AD, Chiralcel OD, Chiralcel IA, or Chiralcel OJ columns (250×4.6 mm) (Daicel Chemical Industries, Ltd.) with noted percentage of either ethanol in hexane (% Et/Hex) or isopropanol in heptane (% IPA/Hep) as isocratic solvent systems. Chiral preparative chromatography was conducted on one of Chiralpak AS, Chiralpak AD, Chiralcel OD, Ciralcel IA, or Chiralcel OJ columns (20×250 mm) (Daicel Chemical Industries, Ltd.) with desired isocratic solvent systems identified on chiral analytical chromatography or by supercritical fluid (SFC) conditions. Celite® (Fluka) diatomite is diatomaceous earth, and can be referred to as “celite”.
Relevant in vitro assays are referenced in Morrissette, et al., Bioorg. […] The assays were carried out at 25° C. in 0.05 M TRIS buffer pH 7.4, 0.15 M NaCl, 0.1% PEG. Trypsin assays also contained 1 mM CaC12.
Concentrations of stock solutions of Z-GPR-afc were determined from measurements of absorbance at 380 nm of the 7-amino-4-trifluoromethyl coumarin produced upon complete hydrolysis of an aliquot of the stock solution by thrombin.
Activity assays were performed by diluting a stock solution of substrate at least tenfold to a final concentration ≦0.1 Km into a solution containing enzyme or enzyme equilibrated with inhibitor. Times required to achieve equilibration between enzyme and inhibitor were determined in control experiments. Initial velocities of product formation in the absence (Vo) or presence of inhibitor (Vi) were measured. Assuming competitive inhibition, and that unity is negligible compared Km/[S], [I]/e, and [I]/e (where [S], [I], and e respectively represent the total concentrations, of substrate, inhibitor and enzyme), the equilibrium constant (Ki) for dissociation of the inhibitor from the enzyme can be obtained from the dependence of Vo/Vi on [I] shown in the following equation.

[1] = 25° C., 0.05 M TRIS buffer pH 7.4, 0.15 M NaCl, 0.1% PEG, competitive inhibition assumed

Row | pKi [1] | SMILES | pKi
1 |  | NCc1ccc(Cl)cc1CNC(=O)[C@@H]1CCN1C(=O)C1OCc2ccccc21 (stereo partly drawn) [Compound 33-7, (2S)-N-{2-(Aminomethyl)-5-chlorobenzyl}-1-(1,3-dihydroisobenzofuran-1-carbonyl)azetidine-2-carboxamide-2,2,2-trifluoroacetate] | 7.41
2 | 8.60 | NCc1ccc(Cl)cc1CNC(=O)[C@@H]1CCN1C(=O)C1NCc2ccccc21 (stereo partly drawn) [Compound 34-7, (2S)-N-{2-(aminomethyl)-5-chlorobenzyl}-1-(isoindoline-1-carbonyl)azetidine-2-carboxamide bis(2,2,2-trifluoroacetate)] | 
3 | 6.96 | NCc1ccc(Cl)cc1CNC(=O)[C@@H]1CCN1C(=O)C1CNc2ccccc21 (stereo partly drawn) [Compound 35-7, (2S)-N-{2-(Aminomethyl)-5-chlorobenzyl}-1-(indoline-3-carbonyl)azetidine-2-carboxamide bis(2,2,2-trifluoroacetate)] | 
4 |  | NCc1ccc(Cl)cc1CNC(=O)[C@@H]1CCCN1C(=O)[C@H]1CCCO1 [Compound 38-4, (S)—N-{2-(Aminomethyl)-5-chlorobenzyl}-1-{(R)-tetrahydrofuran-2-carbonyl}pyrrolidine-2-carboxamide-2,2,2-trifluoroacetate] | 7.00
5 | 6.59 | NCc1ccc(Cl)cc1CNC(=O)[C@@H]1CCCN1C(=O)c1ncccn1 [Compound 42-3, (S)—N-(2-(Aminomethyl)-5-chlorobenzyl)-1-(pyrimidine-2-carbonyl)pyrrolidine-2-carboxamide bis(2,2,2-trifluoroacetate)] | 
6 | 6.28 | C[C@@]1(C(=O)NCc2cc(Cl)ccc2CN)CCCN1C(=O)[C@H]1CCC(=O)N1 [Compound 43, (S)-N-(2-(aminomethyl)-5-chlorobenzyl)-2-methyl-1-((R)-5-oxopyrrolidine-2-carbonyl)pyrrolidine-2-carboxamide] | 
7 | 6.98 | C[C@@]1(C(=O)NCc2cc(Cl)ccc2CN)CCCN1C(=O)c1ccc(Cl)[nH]1 [Compound 44, (S)-N-(2-(aminomethyl)-5-chlorobenzyl)-1-(5-chloro-1H-pyrrole-2-carbonyl)-2-methylpyrrolidine-2-carboxamide] | 
8 | 7.03 | Cc1ccc(C(=O)N2CCC[C@@]2(C)C(=O)NCc2cc(Cl)ccc2CN)[nH]1 [Compound 45, (S)-N-(2-(aminomethyl)-5-chlorobenzyl)-2-methyl-1-(5-methyl-1H-pyrrole-2-carbonyl)pyrrolidine-2-carboxamide] | 

Row | SMILES | pKi [1] | pKi
9 | NCc1ccc(Cl)cc1CNC(=O)[C@@H]1CCCN1C(=O)C1(O)CCCc2ncccc21 (stereo partly drawn) [Compound 30-6, (2S)-N-{2-(Aminomethyl)-5-chlorobenzyl}-1-(5-hydroxy-5,6,7,8-tetrahydroquinoline-5-carbonyl)pyrrolidine-2-carboxamide bis(2,2,2-trifluoroacetate)] | 7.96 | 
10 | NCc1ccc(Cl)cc1CNC(=O)[C@@H]1CCCN1C(=O)C1(O)CCCc2cnccc21 (stereo partly drawn) [Compound 31-7, (2S)-N-{2-(Aminomethyl)-5-chlorobenzyl}-1-(5-hydroxy-5,6,7,8-tetrahydroisoquinoline-5-carbonyl)pyrrolidine-2-carboxamide bis(2,2,2-trifluoroacetate)] | 8.32 | 
11 | NCc1ccc(Cl)cc1CNC(=O)[C@@H]1CCCN1C(=O)C1(O)CCCc2cccnc21 (stereo partly drawn) [Compound 32-7, (2S)-N-{2-(aminomethyl)-5-chlorobenzyl}-1-(8-hydroxy-5,6,7,8-tetrahydroquinoline-8-carbonyl)pyrrolidine-2-carboxamide bis(2,2,2-trifluoroacetate)] | 8.41 | 
12 | O=C(NCc1cc(Cl)ccc1-n1cnnn1)[C@@H]1CCCN1C(=O)C1(O)CCc2cccnc21 (stereo partly drawn) [Compound 36-3, (2S)-N-{5-Chloro-2-(1H-tetrazol-1-yl)benzyl}-1-(7-hydroxy-6,7-dihydro-5H-cyclopenta[b]pyridine-7-carbonyl)pyrrolidine-2-carboxamide] | 8.60 | 
